This note sets out measurements from patent US11331328B2, “Compositions and methods for inhibiting antiapoptotic Bcl-2 proteins as anti-aging agents” (priority 2014, dated 2022).

The subject of assay [1] is senescent WI38 cells induced by replicative exhaustion (Rep-SC). As to the kind of experiment: Cell viability, LD50 in replicative senescent WI-38 cells. Format: cell-based, human. The settings on record: Table 2. Here is the method: Human WI-38 fibroblasts (WI38 cells, #CCL-75™), human IMR-90 fibroblasts (IMR90 cells, #CCL-186™), human renal epithelial cells (REC cells, #PCS-400-012™) were obtained from ACTT (Manassas, Va., USA). Mouse embryonic fibroblasts (MEF) were isolated from mouse embryos as described^1. All cells were cultured in a complete medium (CM) (Dulbecco's Modified Eagle Medium supplemented with 10% fetal bovine serum [FBS], 100 U/ml penicillin, and 100 μg/ml streptomycin [all from Atlanta Biologicals, Norcross, Ga., and USA]) in a humidified incubator at 37° C. and 5% CO2. Low passages of WI-38 cells (<25), IMR-90 (<25), REC cells (<25) and MEF (<3) were used as non-senescent controls or for induction of senescence to avoid replicative senescence. To induce replicative senescence, WI-38 cells were subcultivated until cell division ceased after about 38 passages or 60 population doublings (FIG. 5)^2. […]
Flow cytometry: Non-senescent and senescent cells were seeded into wells of 24- or 48-well at about 70% of confluence. […] Viable cells (PI^− cells) were numerated by flow cytometry at a constant flow rate and calculated as a percentage of control cells treated with vehicle using the formula: percentage of control=(Ndrug/NC)×100, where Ndrug and NC represent the absolute number of PI^− viable cells of drug-treated and vehicle-treated cells, respectively. […]

Assay [2] relates to non-senescent WI-38 cells (NC). Briefly: Cell viability (PI flow cytometry), LD50 in non-senescent WI-38 cells. Format: cell-based, human. The following applies: for CC50: WI-38 fibroblasts, non-senescent, LD50 by Probit Analysis, read-out: LD50 (μM) for non-senescent cells (NC). The method, then: Mouse embryonic fibroblasts (MEF) were isolated from mouse embryos as described^1. All cells were cultured in a complete medium (CM) (Dulbecco's Modified Eagle Medium supplemented with 10% fetal bovine serum [FBS], 100 U/ml penicillin, and 100 μg/ml streptomycin [all from Atlanta Biologicals, Norcross, Ga., and USA]) in a humidified incubator at 37° C. and 5% CO2. Low passages of WI-38 cells (<25), IMR-90 (<25), REC cells (<25) and MEF (<3) were used as non-senescent controls or for induction of senescence to avoid replicative senescence. […] To induce senescence by expression of oncogenic Ras (Ras^V12), WI-38 cells were infected with the retroviruses pBabe-H-Ras or pBabe-puro (control) (Addgene, Cambridge, Mass., UAS)^2, 3. […] Senescent cells were maintained in culture for a few days, changing the culture medium every 3 days until use. For in vitro cell culture experiments, we usually repeated the experiments for at least three times to ensure the reproducibility of the data. In addition, the repeats of the experiments for three times will allow us to obtain 3 independent observations for statistical analysis.
Flow cytometry: Non-senescent and senescent cells were seeded into wells of 24- or 48-well at about 70% of confluence. […] Both quiescent non-senescent cells and permanently growth arrested senescent cells were treated with vehicle (0.1% DMSO or PBS) or increasing concentrations of the compounds listed in Table 1 for various durations. […] After incubated with propidium iodide (PI 100 ng/ml) in PBS at room temperature for 1 min, cells were centrifuged at 1200 rpm for 6 min and then resuspended in PBS with 2% of FBS for analysis by a BD LSR II flow cytometer (BD Biosciences, San Jose, Calif., USA). Viable cells (PI^− cells) were numerated by flow cytometry at a constant flow rate and calculated as a percentage of control cells treated with vehicle using the formula: percentage of control=(Ndrug/NC)×100, where Ndrug and NC represent the absolute number of PI^− viable cells of drug-treated and vehicle-treated cells, respectively.
MTT (3-[4,5-dimethylthiazol-2-yl]-2,5 diphenyl tetrazolium bromide) assay: Cells were harvested, washed and resuspended in CM and added to wells of 24- or 48-well plates as described above. […] After 4 h at 37° C., the formazan was solubilized by lysing the cells with 300 μl of DMSO. Absorbance of formazan was measured at 595 nm using a Microplate Reader (BioTek, Winooski, Vt., USA). Cell viability was calculated in the method as previously described^4.
Trypan blue exclusion assay: Cells were harvested, washed and resuspended in CM and added to wells of a 6-well plate as described above. […] Living cells stained negative for trypan blue and were counted under light microscopy.
Briefly, Probit (set as y) was determined by looking up their correspondence to the % responded in Finney's table. The log of the compound concentrations was used as x. By fitting a line of regression, we produce the formula y=ax+b.
(Flow cytometry measures light scatter and fluorescence of single cells or particles in a stream.)

Each structure is given as a SMILES string. Like-named read-outs stand apart in the source and are kept apart here.

Turning to `CC1(C)CCC(c2ccc(Cl)cc2)=C(CN2CCN(c3ccc(C(=O)NS(=O)(=O)c4ccc(N[C@H](CCN5CCOCC5)CSc5ccccc5)c(S(=O)(=O)C(F)(F)F)c4)cc3)CC2)C1` [ABT263, navitoclax], the “LD50” value was determined as 1.45 µM in assay [1] and 12.60 µM in assay [2] (Table 2, NC WI38 cells). The CC50 is 12.6 µM in assay [2] (Homo sapiens) and 12.60 µM in assay [2]. For the same compound, in assay [2] (non-senescent WI-38, increasing concentrations, 72 h), the “viable cells by MTT assay and trypan blue exclusion test” value is “is not cytotoxic to non-senescent WI-38 cells”.
